pIC50: −log10 of the molar value. Where two headings read alike, the source gives them in different places.
How the values were obtained:
[1] = molecular target: T1, B-Raf kinase (Homo sapiens, UniProt P15056); experiment: B-Raf kinase assay ([33P] incorporation into MEK1(K97R)); format: biochemical; conditions: class symbols; 8 μM ATP; read-out: IC50 against B-Raf kinase
T1 construct: purchased Upstate Biotechnology
How it was run: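 Recombinant B-Raf (5 ng) phosphorylating 500 ng MEK1(K97R) with 8 μM ATP plus [33P]ATP, pH 7.5 Tris buffer, 30 min at 30 °C. Radiolabel incorporation counted by filter-binding scintillation; IC50 from 3-fold serial dilutions run in duplicate.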

[2] = molecular target: T2, B-Raf(V600E) kinase (Homo sapiens, UniProt P15056, V600E); experiment: B-Raf(V600E) kinase assay ([33P] incorporation into MEK1(K97R)); format: biochemical; conditions: class symbols; 8 μM ATP; read-out: IC50 against B-Raf(V600E) kinase
T2 construct: purchased Upstate Biotechnology
Procedure: (§1) Inhibition of kinase activity by a test compound disclosed herein was estimated by quantifying the amount of [^33P] incorporation of a substrate in the presence of the test compound. Standard assay conditions were 5 ng of recombinant B-Raf(V600E) kinase (Upstate Biotechnology) with 500 ng MEK1 (K97R) in assay buffer (8 μM ATP, 0.5 μCi [^33P] ATP (specific activity 3000 Ci/mmol, PerkinElmer), 50 mM Tris/HCl (pH7.5), and 1 mM EGTA, 1 mM Na3VO4, 1% 2-mercaptoethanol, 0.1% Brij 35, and 0.2 mg/ml BSA), and the test compound (diluted with 4% DMSO) or DMSO alone (as a control) in a final volume of 25 μL. Reactions were incubated at 30° C. for 30 min and stopped by adding 3% phosphoric acid, harvested onto a 96-well GF/B UniFilter (PerkinElmer) using a unifilter harvester (PerkinElmer), and counted with a TopCount microplate scintillation counter (PerkinElmer). The IC50 values of inhibitors were determined after carrying out assays at 3-fold serially diluted concentrations of each compound in duplication. The results were analyzed using linear regression software (GraphPad Prism 4; GraphPad Software Inc.).

[3] = molecular target: T3, C-Raf kinase (Homo sapiens, UniProt P04049); experiment: C-Raf kinase assay ([33P] incorporation into MEK1(K97R)); format: biochemical; conditions: class symbols; 8 μM ATP; read-out: IC50 against C-Raf kinase
T3 construct: purchased Upstate Biotechnology
Procedure: as §1, with “were 2” for “were 5”, “recombinant C-Raf” for “recombinant B-Raf(V600E)”

[4] = molecular target: T4, VEGFR2 kinase (Homo sapiens, UniProt P35968); experiment: VEGFR2 radiometric kinase assay; format: biochemical; conditions: given as bound; 100 μM ATP; read-out: Inhibition activity, IC50 VEGFR2
T4 construct: VEGFR2 kinase domain alone, Millipore; purchased Millipore
Procedure: (§2) The inhibitory activity against VEGFR2 or EGFR was determined by radiometric kinase assay. The experimental condition for VEGFR2 kinase assay was 6.25 ng of recombinant VEGFR2 kinase (VEGFR2 kinase domain alone, Millipore), 5 μg of substrate Poly(Glu-Tyr) (4:1, Sigma), kinase reaction buffer (20 mM MOPS pH 7.0, 1 mM EDTA, 5% glycerol, 0.01% Brij-35, 0.1% β-mercaptoethanol, 1 mg/mL BSA, 100 μM ATP, and 0.1 μCi per well [^33P] ATP (specific activity 3000 Ci/mmol, PerkinElmer)), and the test compound (diluted with 4% DMSO) or DMSO alone (as a control) in a final volume of 25 μL. Reactions were incubated at 30° C. for 30 min and stopped by adding 3% phosphoric acid, harvested onto a 96-well GF/B UniFilter (PerkinElmer) using a unifilter harvester (PerkinElmer), and counted with a TopCount microplate scintillation counter (PerkinElmer).
(§3) Results of inhibition activity against VEGFR2 and EGFR kinases by the selected compounds, which have IC50 values on B-Raf kinase <300 nM, are summarized in Table 6.

[5] = molecular target: T5, EGFR kinase (Homo sapiens, UniProt P00533); experiment: EGFR radiometric kinase assay; format: biochemical; conditions: 100 μM ATP, read-out: Inhibition activity, IC50 EGFR
T5 construct: EGFR kinase domain alone, Millipore; purchased Millipore
Procedure: as §2
The experimental condition for EGFR kinase assay was 25 ng of EGFR kinase (EGFR kinase domain alone, Millipore), 3 μg of the substrate poly(Glu-Tyr), (Sigma), kinase reaction buffer (10 mM MOPS pH 7.0, 0.3 mM EDTA, 0.5% glycerol, 0.001% Brij-35, 10 mM MnCl2, 0.1 mg/ml BSA, 100 μM ATP, and 0.1 μCi per well [^33P]ATP (specific activity 3000 Ci/mmol, PerkinElmer)), and the test compound (diluted with 4% DMSO) or DMSO (as a control) in a final volume of 25 μL. Reactions were incubated at 30° C. for 30 min and stopped by adding 3% phosphoric acid, harvested onto a 96-well GF/B UniFilter (PerkinElmer) using a unifilter harvester (PerkinElmer), and counted with a TopCount microplate scintillation counter (PerkinElmer).
as §3

[6] = tested on: A375 melanoma cells and COLO205 colon cancer cells; experiment: Cell proliferation assay (CellTiter-96); format: cell-based; conditions: Homo sapiens; A375 or COLO205, 72 hours treatment; read-out: Cytotoxicity IC50 for A375 or COLO205
Procedure: The anti-proliferative activities of compounds of formula (I) against B-Raf(V600E) mutant human cancer cell lines, A375 melanoma cells and COLO205 colon cancer cells, were measured using the CellTiter™-96 assay kit (Promega) following the manufacturer's instructions. In brief, the cells were maintained in DMEM containing 10% FCS and incubated at 37° C. in 5% CO2 atmosphere. Cells were plated at a density of 2,000 cells/well on a 96-well plate and incubated for 24 h. Then, these cells were treated with different concentrations of the test compounds and incubated for another 72 hours. At the end of the incubation, CellTiter™-96 Aqueous One Solution Reagent (Promega) was added and incubated for another 4.0 hours. Cell viability was determined by measuring absorbance at 490 nm using EMax® microplate reader (Molecular Devices). Data were processed and analyzed using GraphPad Prism.

T5 sequence (P00533 712-979 limits assumed): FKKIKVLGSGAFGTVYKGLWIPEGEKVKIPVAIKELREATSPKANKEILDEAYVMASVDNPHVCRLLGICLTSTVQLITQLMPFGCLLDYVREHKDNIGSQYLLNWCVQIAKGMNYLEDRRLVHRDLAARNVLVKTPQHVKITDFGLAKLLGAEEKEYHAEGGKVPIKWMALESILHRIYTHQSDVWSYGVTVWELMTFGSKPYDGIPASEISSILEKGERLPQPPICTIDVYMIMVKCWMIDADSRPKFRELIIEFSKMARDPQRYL
T2 sequence (P15056 whole entry V600E): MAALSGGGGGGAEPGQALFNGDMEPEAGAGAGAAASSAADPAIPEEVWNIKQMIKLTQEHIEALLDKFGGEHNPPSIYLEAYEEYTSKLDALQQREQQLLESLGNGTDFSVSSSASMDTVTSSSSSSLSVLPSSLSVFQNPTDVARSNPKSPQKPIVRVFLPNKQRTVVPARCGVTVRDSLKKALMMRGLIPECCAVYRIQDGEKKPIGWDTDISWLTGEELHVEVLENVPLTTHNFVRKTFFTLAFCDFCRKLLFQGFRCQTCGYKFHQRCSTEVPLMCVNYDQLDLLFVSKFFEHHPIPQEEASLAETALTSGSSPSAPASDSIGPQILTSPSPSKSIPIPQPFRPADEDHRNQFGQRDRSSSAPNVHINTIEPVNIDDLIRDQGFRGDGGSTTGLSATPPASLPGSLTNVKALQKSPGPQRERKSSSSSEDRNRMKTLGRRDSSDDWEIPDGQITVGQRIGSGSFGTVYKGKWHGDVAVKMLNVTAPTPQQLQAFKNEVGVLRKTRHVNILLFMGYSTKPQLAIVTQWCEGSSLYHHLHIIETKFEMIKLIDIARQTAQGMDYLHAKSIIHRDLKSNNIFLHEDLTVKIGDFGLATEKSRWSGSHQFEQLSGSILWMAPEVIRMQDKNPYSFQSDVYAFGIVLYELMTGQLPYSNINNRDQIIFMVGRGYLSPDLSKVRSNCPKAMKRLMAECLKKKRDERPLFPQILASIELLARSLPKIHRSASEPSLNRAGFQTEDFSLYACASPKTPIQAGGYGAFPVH
T4 sequence (P35968 834-1162 limits assumed): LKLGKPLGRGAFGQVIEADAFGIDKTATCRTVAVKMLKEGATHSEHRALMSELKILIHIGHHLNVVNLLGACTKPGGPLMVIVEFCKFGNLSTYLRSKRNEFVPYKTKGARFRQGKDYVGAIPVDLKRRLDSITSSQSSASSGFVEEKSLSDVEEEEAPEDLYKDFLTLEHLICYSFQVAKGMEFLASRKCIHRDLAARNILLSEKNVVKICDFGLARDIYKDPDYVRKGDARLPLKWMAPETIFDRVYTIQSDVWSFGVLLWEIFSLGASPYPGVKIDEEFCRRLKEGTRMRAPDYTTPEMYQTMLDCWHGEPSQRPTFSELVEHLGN
T3 sequence (P04049 whole entry): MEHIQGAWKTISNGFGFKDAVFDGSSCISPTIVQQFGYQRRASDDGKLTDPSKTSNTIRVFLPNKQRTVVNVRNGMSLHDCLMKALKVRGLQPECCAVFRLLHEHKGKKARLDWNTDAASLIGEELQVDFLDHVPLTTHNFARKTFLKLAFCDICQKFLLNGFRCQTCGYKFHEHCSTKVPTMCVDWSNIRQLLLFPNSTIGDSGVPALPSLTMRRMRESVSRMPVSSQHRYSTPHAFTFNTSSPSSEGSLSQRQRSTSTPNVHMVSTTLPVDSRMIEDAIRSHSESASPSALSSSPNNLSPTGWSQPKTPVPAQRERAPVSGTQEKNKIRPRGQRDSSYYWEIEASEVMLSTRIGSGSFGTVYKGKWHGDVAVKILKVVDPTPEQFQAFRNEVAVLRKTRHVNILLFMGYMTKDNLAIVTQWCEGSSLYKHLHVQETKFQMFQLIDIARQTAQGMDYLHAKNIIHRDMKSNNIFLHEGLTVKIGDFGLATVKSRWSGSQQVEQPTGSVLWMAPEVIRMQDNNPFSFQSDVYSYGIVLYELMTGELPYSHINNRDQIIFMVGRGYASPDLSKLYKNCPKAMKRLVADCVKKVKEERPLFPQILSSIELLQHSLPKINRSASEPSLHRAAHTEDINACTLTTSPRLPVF
T1 sequence (P15056 whole entry): as the sequence (P15056 whole entry V600E) above, with E600V counted along it

Structure (SMILES) | pIC50 [1] | pIC50 [2] | pIC50 [3] | pIC50 [4] | pIC50 ([5]; class symbols) | pIC50 [6] | pIC50 ([5]; given as bound)
CCCS(=O)(=O)Nc1ccc(F)c(Nc2ncnc3ccc(-c4cccc(C#N)n4)cc23)c1F [compound 63, N-(3-(6-(6-cyanopyridin-2-yl)quinazolin-4-ylamino)-2,4-difluorophenyl)propane-1-sulfonamide] | > 6.52 | > 6.52 | > 6.52 | < 5.52 | 6.00 to 6.52 | > 5.70 | 
CCCS(=O)(=O)Nc1ccc(F)c(Nc2ncnc3cc(OCCN4CCOCC4)c(-c4cccnc4F)cc23)c1F [compound 8, N-(2,4-difluoro-3-(6-(2-fluoropyridin-3-yl)-7-(2-morpholinoethoxy)quinazolin-4-ylamino)phenyl)propane-1-sulfonamide] | > 6.52 | > 6.52 | 6.00 to 6.52 | < 5.52 |  | > 5.70 | < 5.52
CCCS(=O)(=O)Nc1ccc(F)c(Nc2ncnc3ccc(-c4ccc(F)nc4)cc23)c1F [compound 3, N-(2,4-difluoro-3-(6-(6-fluoropyridin-3-yl)-quinazolin-4-ylamino)phenyl)propane-1-sulfonamide] | > 6.52 | > 6.52 | > 6.52 | < 5.52 |  | > 5.70 | < 5.52
CCCS(=O)(=O)Nc1ccc(F)c(Nc2ncnc3ccc(-c4cnc(N)nc4)cc23)c1F [compound 50, N-(3-(6-(2-aminopyrimidin-5-yl)quinazolin-4-ylamino)-2,4-difluorophenyl)propane-1-sulfonamide] | > 6.52 | 6.00 to 6.52 | 6.00 to 6.52 | < 5.52 |  | > 5.70 | < 5.52
CCCS(=O)(=O)Nc1ccc(F)c(Nc2ncnc3ccc(-c4cnccc4F)cc23)c1F [compound 66, N-(2,4-difluoro-3-(6-(4-fluoropyridin-3-yl)quinazolin-4-ylamino)phenyl)propane-1-sulfonamide] | > 6.52 | > 6.52 | > 6.52 | < 5.52 |  | > 5.70 | < 5.52
CCCS(=O)(=O)Nc1ccc(F)c(Nc2ncnc3ccc(-c4ccnc(OC)c4)cc23)c1F [compound 31, N-(2,4-difluoro-3-(6-(2-methoxypyridin-4-yl)quinazolin-4-ylamino)phenyl)propane-1-sulfonamide] | > 6.52 | > 6.52 | > 6.52 | < 5.52 | 6.00 to 6.52 | > 5.70 | 
CCCS(=O)(=O)Nc1ccc(F)c(Nc2ncnc3ccc(-c4ccc(OC)nc4)cc23)c1F [compound 27, N-(2,4-difluoro-3-(6-(6-methoxypyridin-3-yl)quinazolin-4-ylamino)phenyl)propane-1-sulfonamide] | 6.00 to 6.52 | > 6.52 | > 6.52 | < 5.52 | 5.52 to 6.00 | > 5.70 | 
CCCS(=O)(=O)Nc1ccc(F)c(Nc2ncnc3ccc(-c4cncc(F)c4)cc23)c1F [compound 46, N-(2,4-difluoro-3-(6-(5-fluoropyridin-3-yl)quinazolin-4-ylamino)phenyl)propane-1-sulfonamide] | > 6.52 | > 6.52 | > 6.52 | < 5.52 |  | > 5.70 | < 5.52
CCCS(=O)(=O)Nc1ccc(F)c(Nc2ccnc3ccc(-c4ccnc(F)c4)cc23)c1F [compound 25, N-(2,4-difluoro-3-(6-(2-fluoropyridin-4-yl)quinolin-4-ylamino)phenyl)propane-1-sulfonamide] | > 6.52 | > 6.52 | > 6.52 | < 5.52 |  | > 5.70 | < 5.52
CCCS(=O)(=O)Nc1ccc(F)c(Nc2ncnc3cc(F)c(-c4cccnc4F)cc23)c1F [compound 7, N-(2,4-difluoro-3-(7-fluoro-6-(2-fluoropyridin-3-yl)quinazolin-4-ylamino)phenyl)propane-1-sulfonamide] | > 6.52 | > 6.52 | > 6.52 | < 5.52 |  | > 5.70 | < 5.52
CCCS(=O)(=O)Nc1ccc(F)c(Nc2ncnc3cc(F)c(-c4ccncc4)cc23)c1F [compound 15, N-(2,4-difluoro-3-(7-fluoro-6-(pyridin-4-yl)quinazolin-4-ylamino)phenyl)propane-1-sulfonamide] | > 6.52 | > 6.52 | > 6.52 | < 5.52 | 5.52 to 6.00 | > 5.70 | 
CCCS(=O)(=O)Nc1ccc(F)c(Nc2ncnc3ccc(-c4ccc(N5CCOCC5)nc4)cc23)c1F [compound 2, N-(2,4-difluoro-3-(6-(6-morpholinopyridin-3-yl)quinazolin-4-ylamino)phenyl)propane-1-sulfonamide] | > 6.52 | > 6.52 | > 6.52 | < 5.52 | 5.52 to 6.00 | > 5.70 | 

Source: US9321762B2, “Quinazoline compounds, method for preparing the same and use thereof” (DEVELOPMENT CENTER FOR BIOTECHNOLOGY, priority 2013, dated 2016)
